Results on two compounds are retold here after patent US10251398B2, “Improving shelf life and color profile of resin compositions with silver nanoparticles” (priority 2013, dated 2019).

The conditions of data set [1]: in water; cited from earlier work.
The conditions of data set [2]: silver benzoate combined with solvent DMAEMA; FIG. 1. The text has this:
FIG. 9 compares the resin compositions of FIG. 7 (A) with the color profiles of various resin compositions prepared with the silver benzoate/DMAEMA mixture added to the base resin before mixing with the catalyst resin to polymerize and cured by either light-curing or self-curing (B).

Molecules are shown by their SMILES.

For `C=C(C)C(=O)OC` [methyl methacrylate (MMA), methyl methacrylate], in data set [1], the water solubility entry was “about 1.6 g in 100 g of water”.

For the compound `O=C([O-])c1ccccc1.[Ag+]` [silver benzoate], the “change in color over time” value in data set [2] is recorded as “become darker over time”.
